Reference: patent US20130252951A1, “7-HYDROXY-PYRAZOLO[1,5-A] PYRIMIDINE COMPOUNDS AND THEIR USE AS CCR2 RECEPTOR ANTAGONISTS” (Proximagen Limited, priority 2010, published 2013)

Biological target: human CCR2 (Homo sapiens, UniProt P41597)
Assay: CCR2 functional calcium assay (FLIPR calcium flux, hMCP-1 challenge)
Type: cell-based
Parameters: expressed in transfected cells; host or cells: HEK293 EBNA cells
Details: HEK293 EBNA cells transfected with human CCR2, hMCP-1 challenge; read-out: Functional CCR2 fKi
Description: The CCR2 receptor couples through the Gi/Gq signaling pathway and results in activation of calcium mobilization. The functional activity of test compounds was routinely tested by measuring the ability of compounds to antagonize CCR2 activity in a dose dependent manner, in HEK293 EBNA cells transfected with the human CCR2 receptor (hMCP-1 challenge), using a calcium flux Fluorescent Imaging Plate Reader FLIPR assay. Non-transfected HEK293 EBNA cells were used as control of non-specific response.
Briefly, test compounds were dissolved in dimethyl sulfoxide (DMSO) to a concentration of 10 mM and stored in matrix screenmate racks. The required amount of compound was transferred to 96-well compound plates on the day of assay and diluted in assay buffer to the required final concentration; dose-response measurements were assayed by making 1:3 serial dilutions to produce 10 point curves. The compounds were then transferred to 384-well assay plates ready for use. Top concentrations were adjusted depending on the potency of the compounds with a typical concentration range of 30 μM to 0.5 nM being used. The assay buffer used was HBSS buffer supplemented with 20 mM HEPES and 0.1% BSA, pH7.4. The loading/wash buffers were the same as the assay buffer.
Cells were suspended in culture medium at a density of 10000 cells/50 μl (the cell culture media composition was DMEM high glucose supplemented with 10% dialyzed FBS, 250 μg/ml Geneticin, and 400 μg/ml Hygromycin B), transferred to 384-well black/clear Costar plates (Costar #3712) (50 μl/well) and incubated at 37° C., in a 5% CO2/95% air humidified incubator for 16 h. The cells were washed with assay buffer at 37° C. using the Biotek ELx 405, washing 3 times, leaving 20 μl buffer in the well. 20 μl Fluo-4 (Fluo-4 stock solution (1 mM) was prepared by dissolving one vial of Fluo-4 (50 μg) in 45 μl of pluronic acid (240 mg/ml in DMSO). This stock solution of Fluo-4 was then diluted 250 times with loading buffer to give a Fluo-4 concentration of 4 μM. The dye solution (used within 2 h and kept away from light) was added to each well using a repeating multichannel pipette; the cells were then incubated at 37° C. for 60 min. Following the incubation, cells were washed in assay buffer at 37° C. using the Biotek ELx 405, washing 3 times, leaving 40 μl in each well and incubated for 10 min at 37° C. before use. A combined agonist/antagonist protocol was used. Compound (antagonist) was added to the cell plate using the FLIPR. Basal fluorescence was recorded every second for 10 seconds prior to compound addition (10 μl) and fluorescence recorded every second for 1 minute then every 6 seconds for a further 1 minute. Agonist (MCP-1) was then added using the FLIPR and fluorescence recorded as described above.
The positive control (agonist) was human recombinant MCP-1 which was stored as a stock concentration of 10 μM in distilled water and stored at −20° C. (maximal response: 30 nM; EC50 dose: 3-5 nM). The reference compound (antagonist) was RS102895 which was used as a 10 mM DMSO solution and stored at −20° C.
FLIPR responses were measured as peak minus basal fluorescence intensity and were expressed as a percentage of EC50 MCP-1 challenge. Curve-fitting and parameter estimation were carried out using GraphPad Prism 4.0 (GraphPad Software Inc., San Diego, Calif.).

Chain of human CCR2 (P41597 whole entry): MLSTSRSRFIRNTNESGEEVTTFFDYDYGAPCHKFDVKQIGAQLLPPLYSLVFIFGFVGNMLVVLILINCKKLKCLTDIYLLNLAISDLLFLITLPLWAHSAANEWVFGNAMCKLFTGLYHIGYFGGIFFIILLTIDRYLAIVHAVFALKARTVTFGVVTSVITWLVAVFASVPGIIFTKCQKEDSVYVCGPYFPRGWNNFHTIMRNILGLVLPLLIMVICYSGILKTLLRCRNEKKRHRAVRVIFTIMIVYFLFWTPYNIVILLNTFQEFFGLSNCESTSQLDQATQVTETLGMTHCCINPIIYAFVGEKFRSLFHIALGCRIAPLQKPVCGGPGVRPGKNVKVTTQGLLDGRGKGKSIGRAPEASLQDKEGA

| Compound | Ki [nM] |
| --- | --- |
| CCc1nc2ccnn2c(O)c1Cc1cc(F)cc(C(F)(F)F)c1 [Example 4, 5-Ethyl-6-{[3-fluoro-5-(trifluoromethyl)phenyl]methyl}pyrazolo[1,5-a]pyrimidin-7-ol] | < 10 |
| Oc1c(Cc2cc(F)c(F)c(F)c2)c(C2CCC2)nc2ccnn12 [Example 49, 5-Cyclobutyl-6-[(3,4,5-trifluorophenyl)-methyl]pyrazolo[1,5-a]pyrimidin-7-ol] | < 10 |
| COc1cccc(Cc2c(C)nc3ccnn3c2O)c1 [Example 10, 6-[(3-Methoxyphenyl)methyl]-5-methyl-pyrazolo[1,5-a]pyrimidin-7-ol] | 100 to 1000 |
| CCc1nc2ccnn2c(O)c1Cc1ccc(F)c(Cl)c1 [Example 14, 6-[(3-Chloro-4-fluorophenyl)methyl]-5-ethylpyrazolo[1,5-a]pyrimidin-7-ol] | < 10 |
| COCCNC(=O)c1cnn2c(O)c(Cc3ccc(Cl)c(Cl)c3)c(C)nc12 [Example 115, 6-[(3,4-Dichlorophenyl)methyl]-7-hydroxy-N-(2-methoxyethyl)-5-methylpyrazolo-[1,5-a] pyrimidine-3-carboxamide] | 10 to 100 |
| COCCCNC(=O)c1cnn2c(O)c(Cc3ccccc3)c(C)nc12 [Example 112, 6-Benzyl-7-hydroxy-N-(3-methoxypropyl)-5-methylpyrazolo[1,5-a] pyrimidine-3-carboxamide] | 100 to 1000 |
| COC(=O)c1nc2ccnn2c(O)c1Cc1cccc(Cl)c1 [Example 81, Methyl 6-[(3-chlorophenyl)methyl]-7-hydroxypyrazolo[1,5-a]pyrimidine-5-carboxylate] | < 10 |
| Cc1nc2c(C(=O)N(C)C)cnn2c(O)c1Cc1ccc(Cl)cc1 [Example 100, 6-[(4-Chlorophenyl)methyl]-7-hydroxy-N,N,5-trimethylpyrazolo[1,5-a]pyrimidine-3-carboxamide] | 100 to 1000 |
| COCCNC(=O)c1cnn2c(O)c(Cc3ccc(Cl)cc3)c(C)nc12 [Example 107, 6-[(4-Chlorophenyl)methyl]-7-hydroxy-N-(2-methoxyethyl)-5-methylpyrazolo[1,5-a]-pyrimidine-3-carboxamide] | 10 to 100 |
| CC(=O)c1nc2ccnn2c(O)c1Cc1ccc(Cl)c(Cl)c1 [Example 96, 1-{6-[(3,4-Dichlorophenyl)methyl]-7-hydroxypyrazolo[1,5-a]pyrimidin-5-yl}ethan-1-one] | 10 to 100 |
| Oc1c(Cc2cc(F)cc(C(F)(F)F)c2)c(C2CCC2)nc2ccnn12 [Example 48, 5-Cyclobutyl-6-{[3-fluoro-5-(trifluoro-methyl)phenyl]methyl}pyrazolo[1,5-a]-pyrimidin-7-ol] | < 10 |
| CCc1nc2ccnn2c(O)c1Oc1cccc(C(F)(F)F)c1 [Example 61, 5-Ethyl-6-[3-(trifluoromethyl)phenoxy] pyrazolo[1,5-a]pyrimidin-7-ol] | 100 to 1000 |
| Cc1nc2c(C)cnn2c(O)c1Cc1ccc(Cl)cc1 [Example 57, 6-[(4-Chlorophenyl)methyl]-3,5-dimethyl-pyrazolo[1,5-a]pyrimidin-7-ol] | 100 to 1000 |
| CCCc1nc2ccnn2c(O)c1Cc1ccc(Cl)c(Cl)c1 [Example 17, 6-[(3,4-Dichlorophenyl)methyl]-5-propyl-pyrazolo[1,5-a]pyrimidin-7-ol] | < 10 |
| CC(C)c1nc2ccnn2c(O)c1Cc1cc(F)cc(Cl)c1 [Example 39, 6-[(3-Chloro-5-fluorophenyl)methyl]-5-(propan-2-yl)pyrazolo[1,5-a]pyrimidin-7-ol] | < 10 |
| Cc1nc2ccnn2c(O)c1C(C)c1ccc(Cl)cc1 (centres unmarked) [Example 11, 6-[1-(4-Chlorophenyl)ethyl]-5-methyl-pyrazolo[1,5-a]pyrimidin-7-ol] | 100 to 1000 |
| Cc1noc(Cc2nc3ccnn3c(O)c2Cc2ccc(Cl)cc2)n1 [Example 98, 6-[(4-Chlorophenyl)methyl]-5-[(3-methyl-1,2,4-oxadiazol-5-yl)methyl]pyrazolo[1,5-a]-pyrimidin-7-ol] | 100 to 1000 |
| Cc1nc2ccnn2c(O)c1N(C)c1cccc(F)c1 [Example 80, 6-[(3-Fluorophenyl)(methyl)amino]-5-methylpyrazolo[1,5-a]pyrimidin-7-ol] | 100 to 1000 |

Next, values leading:

| Ki [nM] | Compound |
| --- | --- |
| < 10 | Oc1c(Cc2ccc(C(F)(F)F)cc2)c(C2CC2)nc2ccnn12 [Example 23] |
| < 10 | CC(C)c1nc2ccnn2c(O)c1Cc1ccc(Cl)c(F)c1 [Example 38, 6-[(4-Chloro-3-fluorophenyl)methyl]-5-(propan-2-yl)pyrazolo[1,5-a]pyrimidin-7-ol] |
| 100 to 1000 | Cc1ccc(Cc2c(C)nc3c(C(=O)NCCc4ccccn4)cnn3c2O)cc1 [Example 111, 7-Hydroxy-5-methyl-6-[(4-methylphenyl)-methyl]-N-[2-(pyridin-2-yl)ethyl]pyrazolo-[1,5-a]pyrimidine-3-carboxamide] |
| 10 to 100 | COCCc1nc2ccnn2c(O)c1Cc1ccc(Cl)cc1 [Example 54, 6-[(4-Chlorophenyl)methyl]-5-(2-methoxyethyl)pyrazolo[1,5-a]pyrimidin-7-ol] |
| 100 to 1000 | OCc1nc2ccnn2c(O)c1Cc1ccc(Cl)cc1 [Example 90, 6-[(4-Chlorophenyl)methyl]-5-(hydroxymethyl)pyrazolo[1,5-a]pyrimidin-7-ol] |
| < 10 | CC(C)OC(=O)c1nc2ccnn2c(O)c1Cc1cccc(Cl)c1 [Example 82, Propan-2-yl 6-[(3-chlorophenyl)methyl]-7-hydroxypyrazolo[1,5-a]pyrimidine-5-carboxylate] |
| < 10 | CC(C)OC(=O)c1nc2ccnn2c(O)c1Cc1ccc(Cl)c(Cl)c1 [Example 84, Propan-2-yl 6-[(3,4-dichlorophenyl)-methyl]-7-hydroxy pyrazolo[1,5-a]-pyrimidine-5-carboxylate] |
| 100 to 1000 | Oc1c(Cc2ccc(Cl)cc2)c(CN2CCOCC2)nc2ccnn12 [Example 91, 6-[(4-Chlorophenyl)methyl]-5-(morpholin-4-ylmethyl)pyrazolo[1,5-a]pyrimidin-7-ol] |
| < 10 | COC(=O)c1nc2ccnn2c(O)c1Cc1ccc(Cl)c(Cl)c1 [Example 83, Methyl 6-[(3,4-dichlorophenyl)methyl]-7-hydroxypyrazolo[1,5-a]pyrimidine-5-carboxylate] |
| 100 to 1000 | COCCNC(=O)c1cnn2c(O)c(Cc3ccc(C(F)(F)F)cc3)c(C)nc12 [Example 113, 7-Hydroxy-N-(2-methoxyethyl)-5-methyl-6-{[4-(trifluoromethyl)phenyl]methyl}pyrazolo [1,5-a]pyrimidine-3-carboxamide] |
| 100 to 1000 | Cc1nc2c(C(=O)N3CCN(C)CC3)cnn2c(O)c1Cc1ccc(Cl)cc1 [Example 104, 6-[(4-Chlorophenyl)methyl]-5-methyl-3-[(4-methylpiperazin-1-yl)carbonyl]pyrazolo [1,5-a]pyrimidin-7-ol] |
| < 10 | Oc1c(Cc2ccc(F)c(F)c2)c(C2CCC2)nc2ccnn12 [Example 45, 5-Cyclobutyl-6-[(3,4-difluorophenyl)-methyl]pyrazolo[1,5-a]pyrimidin-7-ol] |
| < 10 | Oc1c(Cc2ccc(Cl)cc2)c(C2CCC2)nc2ccnn12 [Example 44, 6-[(4-Chlorophenyl)methyl]-5-cyclobutyl-pyrazolo[1,5-a]pyrimidin-7-ol] |
| 10 to 100 | COC(=O)c1nc2ccnn2c(O)c1Cc1ccc(Cl)cc1 [Example 6, Methyl 6-[(4-chlorophenyl)methyl]-7-hydroxypyrazolo[1,5-a]pyrimidine-5-carboxylate] |
| 100 to 1000 | COCCNC(=O)c1cnn2c(O)c(Cc3ccc(Cl)cc3)c(COC)nc12 [Example 118, 6-[(4-Chlorophenyl)methyl]-7-hydroxy-N-(2-methoxy-ethyl)5-(methoxymethyl)-pyrazolo[1,5-a]pyrimidine-3-carboxamide] |

Same assay, conditions: agonist positive control

| EC50 [nM] | concentration giving maximal response [nM] | Compound |
| --- | --- | --- |
| 3 to 5 | 30 | MCP-1: human recombinant MCP-1, positive control (agonist) of the CCR2 functional assay |
